Here are results for 2 compounds from US20140128418A1, “PYRAZOLE DERIVATIVES, PREPARATION METHOD THEREOF, AND COMPOSITION FOR PREVENTING AND TREATING OSTEOPOROSIS CONTAINING SAME” (EWHA UNIVERSITY-INDUSTRY COLLABORATION FOUNDATION, priority 2011, published 2014).

Assay [1] has as its system differentiation of macrophages into osteoclasts. Put plainly: Inhibitory effect on differentiation of macrophages into osteoclasts (rhM-CSF/RANKL, TRAP staining). As to conditions: mouse bone marrow macrophages, rhM-CSF 30 ng/mL + RANKL 200 ng/mL, 5 days, light microscope, Examples 2, 3, 7, 8, 9, 11 tested against Comparative Example 1 as control, FIGS. 1 to 6. It counts as cell-based, mice (C57BL/6J). Here is the method: Bone marrow cells were harvested from 4 to 5-week old male mice (C57BL/6J). Specifically, mice were sacrificed by cervical dislocation, and femur and tibia were extracted while removing muscles adhered around the bone with scissors and soaked in phosphate buffered saline (PBS). A 1 mL syringe filled with α-minimum essential medium (α-MEM) was put into one end of the femur and tibia from which bone marrow cells were then harvested.
The bone marrow cells were cultured to obtain macrophages. Specifically, the obtained bone marrow cells were placed in a 50 mL tube and centrifuged at 1500 rpm for 5 minutes. Then, the supernatant was removed, and a 3:1 mixture of a Gey's solution and PBS was added and maintained at room temperature for about 2 to 3 minutes. After another centrifugation (1500 rpm, 5 minutes), the supernatant was removed, α-MEM was added, followed by stirring, and then the cells were cultured in a 10 cm cell culture dish at 37° C. for 24 hours. After the third centrifugation (1500 rpm, 5 minutes), the supernatant was removed, a culture medium and a macrophage differentiation factor rhM-CSF (30 ng/mL) were added, and then the cells were cultured in a 10 cm cell culture dish at 37° C. for 3 days. After 3 days, macrophages adhered to the dish were scraped and collected in a tube, followed by centrifugation (1500 rpm, 5 minutes). […]

Assay [2] has as its system bone loss induced by ovariectomy. The experiment in a line: Inhibitory effect on bone loss induced by ovariectomy in ovariectomized mouse models (tibia, μ-CT, TRAP staining). The class given is in vivo, female mice. As to conditions: ovariectomized mice, intraperitoneal for 3 weeks at intervals of 2 days, versus control group 1 (ovariectomy). The source says: In order to examine the inhibitory effects of the compounds on the bone loss induced by ovariectomy in ovariectomized mouse models, 8-week old female mice were divided into control groups 1 and 2 and experimental group 1, each containing 5 mice.
The mice in control group 1 and experimental group 1 were subjected to ovariectomy via laparotomy, and the mice in control group 2 were subjected to laparotomy in the same manner as in control group 1 and experimental group 1, but without ovariectomy, and served as a sham control.
The compound of Example 13 was intraperitoneally administered to the mice of experimental group 1 for 3 weeks at intervals of 2 days after 7 days of recovery from the surgery. After verification of excision of ovary of mice, both tibiae were harvested from the mice of experimental group 1 and control groups 1 and 2, and cross-sections were consecutively imaged using μ-CT (Skyscan 1076, SKYS CAN N. V.) and V-works program (Cybermed) and reconstructed into 3-dimensional images. Then, the bone volume, bone density, and the number of trabecular bones were quantified using an image analysis program.
The experimental results and statistical analysis using ANOVA (one-way analysis of variance) if verify the Newman kulseu (Newman-Keuls test) significance is verified using the […] level or less, a significance test was performed.
In FIG. 9, the bone volume is expressed as a percentage (BV/TV %) of the bone volume (BV) of the harvested tibia to the total bone volume (TV), and in FIG. 11, the number of trabecular bones is expressed as the number of trabecular bones) per 1 millimeter (mm).
Moreover, the harvested tibiae were placed in PBS, formaldehyde added, and fixed for 24 hours and then decalcified in PBS to which was added 0.5 M EDTA. […] Moreover, the number of osteoclasts was analyzed under a microscope using the Osteomeasure software program (Osteometrics Inc., USA), and the results are shown in FIG. 13, in which the quantification of osteoclasts is expressed as the number of osteoclasts per bone surface 1 millimeter (mm). […]

Each structure is given as a SMILES string.

Take `Oc1cc(-c2ccccc2)nn1-c1ccccn1` [Comparative Example 1, 3-phenyl-1-(pyridin-2-yl)-1H-pyrazol-5-ol]: the “differentiation of macrophages into osteoclasts” value in assay [1] is listed as “more macrophages differentiated into osteoclasts”.

For the compound `COc1cc(/C=C/c2nn(-c3ccccn3)c(O)c2Cc2ccccc2)ccc1O` [Example 13, 1-(pyridin-2-yl)-3-[(3-methoxy-4-hydroxyphenyl)-E-ethenyl]-4-benzyl-1H-pyrazol-5-ol], the “reduction in bone volume of the tibia (BV/TV %)” value in assay [2] (FIG. 9) is given as “less than that in control group 1”. For the same compound, the “bone density of the tibia” value in assay [2] (FIG. 10) is listed as “higher”. The “number of trabecular bones (per 1 mm)” value in assay [2] (FIG. 11) was “higher”.
